# T1: Porcine PDH E1 (Sus scrofa, UniProt P29804)
# T1 sequence (P29804 31-390): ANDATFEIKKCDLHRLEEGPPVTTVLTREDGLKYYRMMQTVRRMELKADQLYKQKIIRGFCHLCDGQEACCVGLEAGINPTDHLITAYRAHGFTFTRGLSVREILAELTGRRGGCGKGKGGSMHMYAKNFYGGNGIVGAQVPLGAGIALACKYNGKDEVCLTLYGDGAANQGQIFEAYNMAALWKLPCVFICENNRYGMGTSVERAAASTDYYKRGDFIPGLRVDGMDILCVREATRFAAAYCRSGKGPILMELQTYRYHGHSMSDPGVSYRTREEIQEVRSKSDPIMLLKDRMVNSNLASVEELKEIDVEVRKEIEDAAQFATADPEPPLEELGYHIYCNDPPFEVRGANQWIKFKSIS
# Key:
# [1] = biological target: A. viridans PO (Aerococcus viridans, UniProt A9X9K8); experiment: A. viridans PO inhibitory activity assay (quinoneimine dye); assay type: biochemical; conditions: read-out: KM(TPP)
# Procedure: A. viridans PO and horseradish peroxidase were purchased from Sigma. A. viridans PO activity was determined by monitoring appearance of quinoneimine dye at 550 nm using a microplate reader (CLARIOstar) and conducted as described[5] with some modifications. […] The reaction buffer (50 mM KH2PO4 and 10 mM MgCl2, pH 5.9) contained TPP at specified concentrations, 10 μM flavin adenine dinucleotide, 0.15% 4-aminoantipyrine, 0.3% N-ethyl-N-(2-hydroxy-3-sulfopropyl)-m-toluidine (EHSPT), 50 μg/mL horseradish peroxidase, and 0.35 U/mL A. viridans PO. The reaction mixture was preincubated at 37 °C with inhibitor for 30 min, and then the reaction was initiated by adding pyruvate to a final concentration of 50 mM. To determine the IC50, TPP concentration was set at 60 μM with varying inhibitor concentrations. One unit of PO activity is defined as the production of 1 μmol of hydrogen peroxide per minute. The IC50 values were calculated from nonlinear regression curve fitting using GraphPad Prism.
# (§1) Enzyme inhibitory activity assays – methods and results (Figures S1-4) […]
# (§2) The compound […]
# A. viridans PO inhibitory activity assay. A. viridans PO and horseradish peroxidase were purchased from Sigma. A. viridans PO activity was determined by monitoring appearance of quinoneimine dye at 550 nm using a microplate reader (CLARIOstar) and conducted as described3 with some modifications. […]
# buffer (50 mM KH2PO4 and 10 mM MgCl2, pH 5.9) contained TPP at specified concentrations, 10 µM flavin adenine dinucleotide (FAD), 0.15% 4-aminoantipyrine, 0.3% N-ethyl-N-(2-hydroxy-3-sulfopropyl)-m-toluidine (EHSPT), 50 µg/mL horseradish peroxidase and 0.35 U/mL A. viridans PO. The reaction mixture was preincubated at 37 °C with inhibitor for 30 min, then reaction was initiated by adding pyruvate to a final concentration of 50 mM. To determine the IC50, TPP concentration was set was set at 60 µM with varying inhibitor concentrations. One unit of PO activity is defined as the production of 1 μmol of hydrogen peroxide per minute. The IC 50 values were calculated from non-linear regression curve fitting using GraphPad Prism. […]
# [2] = biological target: T1, Porcine PDH E1; experiment: Porcine PDH E1 inhibitory activity assay (DCPIP reduction); assay type: biochemical
# Procedure: Porcine PDH E1 was purchased from Sigma. Porcine PDH E1 activity was determined by monitoring 2,6-dichlorophenolindophenol (DCPIP) reduction at 600 nm using a microplate reader (CLARIOstar) and conducted as described[5] with some modifications. […] The reaction buffer (50 mM KH2PO4 and 1 mM MgCl2, pH 7) contained thiamine pyrophosphate (TPP) at specified concentrations, 0.25 mM DCPIP, and 2 mg/mL porcine PDH E1. The reaction mixture was preincubated at 37 °C with the inhibitor for 30 min, and then the reaction was initiated by adding pyruvate to a final concentration of 50 mM. To determine the half-maximal inhibitory concentration (IC50), the TPP concentration was set at 60 μM with varying inhibitor concentrations. Specific activity was calculated using the molar extinction coefficient of DCPIP, 21 mM^–1 cm^–1.[28] The IC50 values were calculated from nonlinear regression curve fitting using GraphPad Prism.
# Porcine PDH E1 inhibitory activity assay. Porcine PDH E1 was purchased from Sigma. Porcine PDH E1 activity was determined by monitoring 2,6-dichlorophenolindophenol (DCPIP) reduction at 600 nm using a microplate reader (CLARIOstar) and conducted as described3 with some modifications. The […]
# buffer (50 mM KH2PO4 and 1 mM MgCl2, pH 7) contained thiamine pyrophosphate (TPP) at specified concentrations, 0.25 mM 2,6-dichlorophenolindophenol (DCPIP), and 2 mg/mL porcine PDH E1. The reaction mixture was preincubated at 37 °C with the inhibitor for 30 min, then reaction was initiated by adding pyruvate to a final concentration of 50 mM. To determine the half-maximal inhibitory concentration (IC50), TPP concentration was set at 60 µM with varying inhibitor concentrations. […]
# values were calculated from non-linear regression curve fitting using GraphPad Prism. […]
# [3] = biological target: E. coli OGDH E1 (Escherichia coli, UniProt P0AFG3); experiment: E. coli OGDH E1 inhibitory activity assay (DCPIP reduction); assay type: biochemical; conditions: compound at 200 μM, assay conditions of previous study
# Procedure: E. coli OGDH E1 was from material donated by R. Frank. E. coli OGDH E1 activity was determined by monitoring DCPIP reduction at 600 nm using a microplate reader (CLARIOstar) and conducted as described[5] with some modifications. […] The reaction buffer (50 mM KH2PO4 and 2 mM MgCl2, pH 7) contained TPP at specified concentrations, 0.5 mM DCPIP, and 6.7 mg/mL E. coli OGDH E1. The reaction mixture was preincubated at 37 °C with the inhibitor for 60 min, and then the reaction was initiated by adding α-ketoglutarate to a final concentration of 10 mM. To determine the IC50, the TPP concentration was set at 60 μM with varying inhibitor concentrations. Specific activity was calculated using the molar extinction coefficient of DCPIP, 21 mM^–1 cm^–1.[28] The IC50 values were calculated from nonlinear regression curve fitting using GraphPad Prism.
# as §1, §2
# E. coli OGDH E1 inhibitory activity assay. E. coli OGDH E1 was from material donated by R. Frank. E. coli OGDH E1 activity was determined by monitoring DCPIP reduction at 600 nm using a microplate reader (CLARIOstar) and conducted as described3 with some modifications. The percentage inhibition of compounds against E. coli OGDH E1 was assayed at 250 μM. The reaction buffer (50 mM KH 2PO4 and 2 mM MgCl2, pH 7) contained TPP at specified concentrations, 0.5 mM DCPIP, and 6.7 mg/ml E. coli OGDH E1. The reaction mixture was preincubated at 37 °C with the inhibitor for 60 min, then reaction was initiated by adding α-ketoglutarate to a final concentration of 10 mM. To determine the IC50, TPP concentration was set at 60 µM with varying inhibitor concentrations. Specific activity was […]
# [4] = PAMPA (parallel artificial membrane permeability assay); assay type: in vitro ADME
# Procedure: PAMPA – methods and results (Table S2)
# PAMPA was carried out in 96-well microtiter filter plates obtained from Millipore as described1 with some modifications. Each well of the filter plate was impregnated with 15 µL of 5% hexadecane dissolved in hexane (i.e. total amount of hexadecane: 0.75 µL) for at least 10 minutes in ventilated environment to allow for complete evaporation of hexane. Donor compartments were filled with 200 µL compound-containing donor solutions of compounds dissolved in 5% DMSO, phosphate buffered saline PBS) and connected to acceptor plate prefilled with buffer (5% DMSO in PBS, pH 7.4). The resulting sandwich was incubated at room temperature under gentle shaking and wrapped in wet paper towels to avoid evaporation. After 10 hours, the sandwich was disassembled and the solutions in the acceptor and donor were transferred to a disposable UV-transparent plate. UV absorption was measured at wavelengths between 220 and 340 nm using a microplate reader (CLARIOstar).
# Compounds were tested at 500 µM. Calibration to determine concentration of compounds were performed with varying compound concentrations in buffer (5% DMSO in PBS).
# The artificial membrane permeability is expressed as fraction absorbed (Fa%)2 or log Pe (log of the effective permeability)1. LogD values at pH 7.4 were calculated using MarvinSketch.
# Fa% = 100 ∙CA ∙VA / CD0 ∙ VD where: CA = final drug concentration in the acceptor well (µM)
# VA = volume in the acceptor well (cm3)
# CD0 = Initial drug concentration in the donor well (µM)
# VD = volume in the donor well (cm3) log P (cm/s) = log -ln 1-CA/Cequilibrium
# S = surface area (cm2), typically 0.268 cm2
# Cequilibrium = theoretical equilibrium concentration = [CD ∙VD+CA ∙VA] / [VD+VA] where: CD = final drug concentration in the donor well (µM)
# CA = final drug concentration in the acceptor well (µM)
# Table S2. Permeability data.
# Compounds Fa (%) PAMPA log Pe (cm/s) cLogD (pH = 7.4)
# [5] = Solubility in aqueous buffer / enzyme assay conditions; assay type: physicochemical
# [6] = substrate: Cc1ncc(C[n+]2csc(CCO[P@](=O)(O)OP(=O)(O)O)c2C)c(N)n1; experiment: S. cerevisiae PDC inhibitory activity assay (DCPIP reduction); assay type: biochemical, Saccharomyces cerevisiae; conditions: 37.0 °C
# Procedure: S. cerevisiae PDC was purchased from Sigma. S. cerevisiae PDC activity was determined by monitoring DCPIP reduction at 600 nm using a microplate reader (CLARIOstar) and conducted as described[5] with some modifications. […] The reaction buffer (50 mM KH2PO4 and 1 mM MgCl2, pH 7) contained TPP at specified concentrations, 0.27 mM DCPIP, and 0.15 mg/mL S. cerevisiae PDC. The reaction mixture was preincubated at 37 °C with the inhibitor for 60 min, and then the reaction was initiated by adding pyruvate to a final concentration of 70 mM. […] Specific activity was calculated using the molar extinction coefficient of DCPIP, 21 mM^–1 cm^–1.[28] The IC50 values were calculated from nonlinear regression curve fitting using GraphPad Prism.
# as §1, §2
# S. cerevisiae PDC inhibitory activity assay. S. cerevisiae PDC was purchased from Sigma. S. cerevisiae PDC activity was determined by monitoring DCPIP reduction at 600 nm using a microplate reader (CLARIOstar) and conducted as described3 with some modifications. The percentage inhibition of compounds against S. cerevisiae PDC was assayed at 750 μM. The reaction buffer (50 mM KH 2PO4 and 1 mM MgCl2, pH 7) contained TPP at specified concentrations, 0.27 mM DCPIP, and 0.15 mg/ml S. cerevisiae PDC. […]
# calculated from non-linear regression curve fitting using GraphPad Prism. […]
# E. coli OGDH E1, sequence (P0AFG3 whole entry): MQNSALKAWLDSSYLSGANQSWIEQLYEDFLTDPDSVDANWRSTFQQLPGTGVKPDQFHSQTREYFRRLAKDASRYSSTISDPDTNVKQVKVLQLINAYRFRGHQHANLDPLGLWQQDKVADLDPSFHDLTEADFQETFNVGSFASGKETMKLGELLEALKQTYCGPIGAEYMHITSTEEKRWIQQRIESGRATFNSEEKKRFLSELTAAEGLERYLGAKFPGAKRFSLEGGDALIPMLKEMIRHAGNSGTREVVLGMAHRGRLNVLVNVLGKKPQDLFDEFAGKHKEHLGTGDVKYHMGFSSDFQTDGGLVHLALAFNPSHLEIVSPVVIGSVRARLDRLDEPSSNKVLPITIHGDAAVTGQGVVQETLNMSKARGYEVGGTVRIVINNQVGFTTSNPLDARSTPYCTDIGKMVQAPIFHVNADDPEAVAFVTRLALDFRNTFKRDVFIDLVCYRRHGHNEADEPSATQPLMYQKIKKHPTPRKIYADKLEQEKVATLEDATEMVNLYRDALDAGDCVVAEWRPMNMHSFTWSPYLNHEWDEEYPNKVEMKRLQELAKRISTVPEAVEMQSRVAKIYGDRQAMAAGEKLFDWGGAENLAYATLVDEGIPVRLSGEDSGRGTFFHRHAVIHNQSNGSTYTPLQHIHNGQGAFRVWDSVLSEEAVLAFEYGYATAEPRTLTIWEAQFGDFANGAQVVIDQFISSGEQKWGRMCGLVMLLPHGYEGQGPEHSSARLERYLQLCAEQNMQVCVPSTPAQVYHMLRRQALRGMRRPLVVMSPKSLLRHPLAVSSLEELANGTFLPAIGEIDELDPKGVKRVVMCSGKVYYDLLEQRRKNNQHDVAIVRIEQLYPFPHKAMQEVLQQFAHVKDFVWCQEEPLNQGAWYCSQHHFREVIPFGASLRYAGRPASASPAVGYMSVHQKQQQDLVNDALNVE
# A. viridans PO, sequence (A9X9K8 entry or part of it): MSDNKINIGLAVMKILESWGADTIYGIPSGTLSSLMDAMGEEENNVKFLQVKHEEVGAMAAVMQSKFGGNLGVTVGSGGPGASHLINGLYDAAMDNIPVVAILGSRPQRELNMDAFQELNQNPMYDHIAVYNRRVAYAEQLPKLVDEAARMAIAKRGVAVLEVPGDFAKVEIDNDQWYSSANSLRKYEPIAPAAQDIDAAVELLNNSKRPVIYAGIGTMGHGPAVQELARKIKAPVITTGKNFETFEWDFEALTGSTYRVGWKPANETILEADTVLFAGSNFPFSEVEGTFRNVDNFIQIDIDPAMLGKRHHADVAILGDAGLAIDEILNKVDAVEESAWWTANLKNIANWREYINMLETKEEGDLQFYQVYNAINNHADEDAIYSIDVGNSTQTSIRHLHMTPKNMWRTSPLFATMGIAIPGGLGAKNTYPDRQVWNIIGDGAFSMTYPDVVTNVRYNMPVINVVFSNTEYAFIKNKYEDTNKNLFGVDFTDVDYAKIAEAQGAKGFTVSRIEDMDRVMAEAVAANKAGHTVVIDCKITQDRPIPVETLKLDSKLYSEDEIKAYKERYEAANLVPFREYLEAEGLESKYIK
molecule,measurement,setting,value
"Cc1ncc(C[n+]2csc(CCO[P@](=O)(O)OP(=O)(O)O)c2C)c(N)n1 [TPP, thiamine pyrophosphate]",Km,[1],5 µM
CCC(CC)COC(=O)[C@H](C)NP(=O)(OCCc1cn(Cc2cnc(C)nc2N)nn1)Oc1ccccc1 (stereo partly drawn) [compound 12],inhibition,"[2]; compound at 10 μM, assay conditions of previous study",no inhibition
same,inhibition,[2]; compound at 100 μM,no inhibition
same,inhibition,[3],no inhibition
same,membrane permeability in PAMPA (in words),[4]; PAMPA,membrane-permeable
same,"Papp at 10 h, 500 µM","[4]; PAMPA, compounds at 500 µM, 5% DMSO in PBS pH 7.4, 10 hours, room temperature, read-out: PAMPA log Pe (converted)",7.94 ×10⁻⁶ cm/s
same,Fa (fraction absorbed),"[4]; compounds at 500 µM, 5% DMSO in PBS pH 7.4, 10 hours, room temperature",48%
same,solubility under the enzyme assay conditions,"[5]; OGDH E1 assay, 300 μM",insufficiently soluble
same,solubility,"[5]; PBS with 5% DMSO, aqueous with cosolvent or surfactant or cyclodextrin, kinetic from dmso stock, read-out: solubility in aqueous environments",< 300 µM
same,solubility under the enzyme assay conditions,"[5]; PDC assay conditions, 1300 μM",not sufficiently soluble
same,solubility under the enzyme assay conditions,"[5]; PO assay conditions, 400 μM",not sufficiently soluble
"S. cerevisiae PDC (Saccharomyces cerevisiae S288C) (protein, purchased Sigma) SEITLGKYLFERLKQVNVNTVFGLPGDFNLSLLDKIYEVEGMRWAGNANELNAAYAADGYARIKGMSCIITTFGVGELSALNGIAGSYAEHVGVLHVVGVPSISAQAKQLLLHHTLGNGDFTVFHRMSANISETTAMITDIATAPAEIDRCIRTTYVTQRPVYLGLPANLVDLNVPAKLLQTPIDMSLKPNDAESEKEVIDTILALVKDAKNPVILADACCSRHDVKAETKKLIDLTQFPAFVTPMGKGSIDEQHPRYGGVYVGTLSKPEVKEAVESADLILSVGALLSDFNTGSFSYSYKTKNIVEFHSDHMKIRNATFPGVQMKFVLQKLLTTIADAAKGYKPVAVPARTPANAAVPASTPLKQEWMWNQLGNFLQEGDVVIAETGTSAFGINQTTFPNNTYGISQVLWGSIGFTTGATLGAAFAAEEIDPKKRVILFIGDGSLQLTVQEISTMIRWGLKPYLFVLNNDGYTIEKLIHGPKAQYNEIQGWDHLSLLPTFGAKDYETHRVATTGEWDKLTQDKSFNDNSKIRMIEIMLPVFDAPQNLVEQAKLTAATNAKQ",Km,[6],15 µM

# Reference: publication PMC11483378, “Triazole-Based Thiamine Analogues as Inhibitors of Thiamine Pyrophosphate-Dependent Enzymes: 1,3-Dicarboxylate for Metal Binding” (ACS Omega, 2024)
